We go through 1 compound from patent US20040132027A1, “Screening method for discovering auxiliary agents promoting endocytosis” (priority 2000, published 2004).

Each structure is given as a SMILES string.

In this experiment the test system is yeast cells of the strain RPY10. The experiment can be described thus: Transformation rate of yeast cells incubated with plasmid YEP24, with and without auxiliary agent. Particulars: 5 μl chloroquine (100 mM solution) in 1 ml 1M saccharose pH 3.3, 10 μg YEP24, 24 h at 24° C., without chloroquine 0.8. It counts as cell-based, Saccharomyces cerevisiae. As for the experimental part: A test method for the quantification of the uptake and the endocytosis transfer was made as follows. […] cells from the logarithmic growth phase of the strain RPY10 (Matα, leu2-3, ura3, his4 ade6 (4×10^7−7×10^7 cells per ml) (Piper, R. C., Whitters, E. A., Stevens, T. H. (1994) Yeast VpsS4p is a Sec 1p-like protein required for the consumption of vacuolar targeted, post-Golgi vesicles. Eur. J. Cell Biol. 65:305-318) were incubated for 24 h with 10 μg of the purified plasmid YEP24 (see: D. Bothstein et al., 1979, Gene 8:17-24), with and without auxiliary agent. The structure of the plasmid is shown in FIG. 1.
Prior to the incubation, the cells were washed with the plasmid with at least twice the same volume of H2O and taken up in 1 ml 1M saccharose (pH 3.3, high concentrations of fermentable sugar), re-suspended with the pipette tip and brought in one 10 ml each falcon tube. […] Both were incubated for 5 min at room temperature.
Then 10 μg DNA from the same DNA preparation were pipetted thereto (in 3-100 μl). The falcon tubes were firmly closed and agitated for 24 hours in a water bath or breeding room at 24° C. (the optimum transformation rate is at 24° C.-28° C). […]
After the incubation, 200-500 cells per plate on YE plates (full medium) were plated out, and the colony-forming units (CFU) were determined. […] After 5 days at 24° C., the CFU were counted and tested by means of PCR. […]

`CCN(CC)CCCC(C)Nc1ccnc2cc(Cl)ccc12` (stereo not shown) [chloroquine]: the transformation rate is given as 10.2 10^−8 transformants/CFU.
